Tests used:
Assay type in all cases: biochemical
Human plasma [1] = experiment: Human plasma anticoagulation, activated partial thromboplastin time (APTT); conditions: concentration required to double APTT, linear extrapolation, Hydrochloride
Procedure: (§1) Dog plasma and rat plasma are obtained from conscious mixed-breed hounds (either sex, hazelton-LRE, Kalamazoo, Mich., U.S.A.) or from anesthetized male Sprague-Dawley rats (Harlan Sprague-Dawley, Inc., Indianapolis, Ind., U.S.A.) by venipuncture into 3.8 percent citrate. Fibrinogen is prepared from in-date ACD human blood as the fraction I-2 according to previous procedures and specifications. Smith, Blochem. J., 185, 1-11 (1980); and Smith, et al., Biochemistry, 11, 2958-2967 (1972). Human fibrinogen is also purchased as 98 percent pure/plasmin free from American Diagnostica, Greenwich, Conn. Coagulation reagents ACTIN, Thromboplastin, and Human plasma are from Baxter Healthcare Corp., Dade Division, Miami, Fla. Bovine thrombin from Parke-Davis (Ann Arbor, Mich.) is used for coagulation assays in plasma.
(§2) Coagulation assay procedures are as previously described. Smith, et al., Thrombosis Research, 50, 163-174 (1988). […] The prothrombin time (PT) is measured by adding 0.05 ml saline and 0.05 ml Thromboplastin-C reagent to 0.05 ml test plasma. The activated partial thromboplastin time (APTT) is measured by incubation of 0.05 ml test plasma with 0.05 ml Actin reagent for 120 seconds followed by 0.05 ml CaCl2 (0.02M). The thrombin time (TT) is measured by adding 0.05 ml saline and 0.05 ml thrombin (10 NIH units/ml) to 0.05 ml test plasma. […]

t-PA = target: T1, t-PA (Homo sapiens, UniProt P00750); experiment: t-PA amidase inhibition, chromogenic substrate (Kass); conditions: apparent association constant; Hydrochloride
T1 construct: purchased American Diagnostica, Greenwich, Conn

Human factor Xa = target: T2, Human factor Xa (Homo sapiens, UniProt P00742); experiment: Factor Xa amidase inhibition, chromogenic substrate (Kass); conditions: apparent association constant; Hydrochloride
T2 construct: Human factors X, Xa, IXa, XIa, and XIIa are purchased; purchased Enzyme Research Laboratories, South Bend, Ind

Human plasma [2] = experiment: Human plasma anticoagulation, prothrombin time (PT); conditions: concentration required to double PT, linear extrapolation, Hydrochloride
Procedure: as §1, §2

Human plasmin = target: T3, Human plasmin (Homo sapiens, UniProt P00747); experiment: Plasmin amidase inhibition, chromogenic substrate (Kass); conditions: apparent association constant; Hydrochloride
T3 construct: Human plasmin is purchased from Boehringer Mannheim; purchased Boehringer Mannheim, Indianapolis, Ind

Human plasma [3] = experiment: Human plasma anticoagulation, thrombin time (TT); conditions: concentration required to double thrombin time, linear extrapolation, Hydrochloride
Procedure: as §1, §2

Bovine trypsin = target: T4, Bovine trypsin (Bos taurus, UniProt P00760); experiment: Trypsin amidase inhibition, chromogenic substrate (Kass); conditions: apparent association constant; Hydrochloride
T4 construct: purchased Worthington Biochemicals, Freehold, N.J
T4 sequence (P00760 24-246): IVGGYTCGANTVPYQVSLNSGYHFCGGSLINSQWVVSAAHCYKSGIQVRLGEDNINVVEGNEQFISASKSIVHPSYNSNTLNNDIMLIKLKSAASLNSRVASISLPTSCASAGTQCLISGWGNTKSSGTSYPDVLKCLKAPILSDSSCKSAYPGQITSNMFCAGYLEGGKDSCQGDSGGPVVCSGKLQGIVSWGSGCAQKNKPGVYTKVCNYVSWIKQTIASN

human thrombin = human thrombin (Homo sapiens, UniProt P00734); experiment: Thrombin amidase inhibition, chromogenic substrate (Kass); conditions: apparent association constant, mean over a range of concentrations; Hydrochloride
Procedure: The assay is carried out by mixing 50 μl buffer (0.03M Tris, 0.15M NaCl, pH 7.4), 25 μl of human thrombin solution (purified human thrombin, Enzyme Research Laboratories, South Bend, Ind., at 8 NIH units/ml) and 25 μl of test compound in a solvent (in 50% aqueous methanol, v:v). Then 150 μl of an aqueous solution of the chromogenic substrate (at 0.25 mg/ml) are added and the rates of hydrolysis of the substrate are measured by monitoring the reactions at 405 nm for the release of p-nitroaniline. Standard curves are constructed by plotting free thrombin concentration against hydrolysis rate. The hydrolysis rates observed with test compounds are then converted to free thrombin values in the respective assays by use of the standard curves. The bound thrombin (bound to test compound) is calculated by subtracting the amount of free thrombin observed in each assay from the known initial amount of thrombin used in the assay. The amount of free inhibitor in each assay is calculated by subtracting the number of moles of bound thrombin from the number of moles of added inhibitor (test compound).
The Kass value is the hypothetical equilibrium constant for the reaction between thrombin and the test compound (I). [formula] Kass is calculated for a range of concentrations of test compounds and the mean value is reported in units of liter per mole.

T1 sequence (P00750 36-562): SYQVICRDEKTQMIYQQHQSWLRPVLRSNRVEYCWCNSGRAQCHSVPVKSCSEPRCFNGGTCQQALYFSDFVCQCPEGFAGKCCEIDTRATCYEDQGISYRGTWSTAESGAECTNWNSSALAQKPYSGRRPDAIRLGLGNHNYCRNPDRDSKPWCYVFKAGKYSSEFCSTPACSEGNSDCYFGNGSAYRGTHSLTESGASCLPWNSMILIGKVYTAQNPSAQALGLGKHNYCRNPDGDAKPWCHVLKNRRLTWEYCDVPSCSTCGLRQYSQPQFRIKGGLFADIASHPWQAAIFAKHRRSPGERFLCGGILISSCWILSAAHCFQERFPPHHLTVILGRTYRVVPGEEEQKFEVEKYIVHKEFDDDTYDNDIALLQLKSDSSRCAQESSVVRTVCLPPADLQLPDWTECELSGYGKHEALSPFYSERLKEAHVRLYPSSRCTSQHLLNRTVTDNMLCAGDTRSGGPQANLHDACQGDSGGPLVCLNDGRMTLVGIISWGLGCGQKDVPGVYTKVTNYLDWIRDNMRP
T2 sequence (P00742 235-488 limits assumed): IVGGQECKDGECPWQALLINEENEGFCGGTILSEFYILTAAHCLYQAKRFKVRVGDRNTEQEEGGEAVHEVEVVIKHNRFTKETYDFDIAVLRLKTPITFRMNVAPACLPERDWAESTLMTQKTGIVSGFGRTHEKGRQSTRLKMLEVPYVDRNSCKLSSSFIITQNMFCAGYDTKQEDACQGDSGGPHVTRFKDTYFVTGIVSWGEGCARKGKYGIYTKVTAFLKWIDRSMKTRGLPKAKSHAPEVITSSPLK
T2 sequence (P00742 41-179 limits assumed): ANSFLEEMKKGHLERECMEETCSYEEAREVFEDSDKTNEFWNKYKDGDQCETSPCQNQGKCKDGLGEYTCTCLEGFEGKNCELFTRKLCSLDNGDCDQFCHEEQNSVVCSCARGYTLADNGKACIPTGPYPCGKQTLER
T3 sequence (P00747 581-810 limits assumed): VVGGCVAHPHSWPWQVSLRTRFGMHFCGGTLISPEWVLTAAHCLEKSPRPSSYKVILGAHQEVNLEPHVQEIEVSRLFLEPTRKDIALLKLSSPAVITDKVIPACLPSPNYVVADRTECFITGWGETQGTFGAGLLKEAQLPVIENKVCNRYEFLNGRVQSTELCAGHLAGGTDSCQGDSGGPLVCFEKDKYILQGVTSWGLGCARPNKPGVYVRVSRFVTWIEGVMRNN
T3 sequence (P00747 97-580 limits assumed): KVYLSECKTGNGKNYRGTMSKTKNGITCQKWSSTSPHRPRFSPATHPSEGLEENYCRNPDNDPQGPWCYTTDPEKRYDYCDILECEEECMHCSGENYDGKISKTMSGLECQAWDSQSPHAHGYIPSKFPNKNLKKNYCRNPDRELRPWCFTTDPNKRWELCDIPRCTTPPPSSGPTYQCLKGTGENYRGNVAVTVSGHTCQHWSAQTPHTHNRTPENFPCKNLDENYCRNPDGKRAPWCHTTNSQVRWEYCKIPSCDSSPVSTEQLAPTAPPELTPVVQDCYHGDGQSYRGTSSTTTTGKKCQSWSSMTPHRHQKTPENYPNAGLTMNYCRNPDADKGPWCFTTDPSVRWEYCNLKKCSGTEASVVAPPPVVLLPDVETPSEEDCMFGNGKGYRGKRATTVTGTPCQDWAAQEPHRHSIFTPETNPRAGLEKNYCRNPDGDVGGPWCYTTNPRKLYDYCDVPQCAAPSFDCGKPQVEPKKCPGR

| SMILES | 2 × Clotting time APTT (Human plasma [1]) | Kass t-PA (t-PA) [L/mol × 10^6] | Kass Xa (Human factor Xa) [L/mol × 10^6] | 2 × Clotting time PT (Human plasma [2]) | Kass Plasmin (Human plasmin) [L/mol × 10^6] | 2 × Clotting time TT (Human plasma [3]) [ng/mL] | Kass Trypsin (Bovine trypsin) [L/mol × 10^6] | Kass Human Thrombin (human thrombin) [L/mol × 10^6] |
| --- | --- | --- | --- | --- | --- | --- | --- | --- |
| CCOC(=O)N[C@@H](Cc1ccccc1)C(=O)N1CCC[C@@]1(C)C(=O)N[C@H](C=O)CCCNC(=N)N.Cl [Example 5, N-Ethoxycarbonyl-L-phenylalanyl (αmethyl)-L-prolinyl-L-arginine Aldehyde Hydrochloride] | 2,500 ng/mL | 0.00079 | 0.044 | 2,200 ng/mL | 0.059 | 48 | 2.4 | 75 |
| CCOC(=O)NC(CC)(Cc1ccccc1)C(=O)N1CCC[C@H]1C(=O)N[C@H](C=O)CCCNC(=N)N.Cl (stereo partly drawn) [Example 13, N-Ethoxycarbonyl-L-phenylalanyl (αethyl)-L-prolinyl-L-arginine Aldehyde Hydrochloride] | – | 0.002 | 0.036 | 3,300 ng/mL | 0.12 | 93 | 4.9 | 57 |

— US5484772A, “Antithrombotic agents” (Eli Lilly and Company, priority 1994, dated 1996)
